# Results from patent US20230279002A1, “Polymorphs of Crystalline Forms of 3,10-dimethoxy-5,8,13,13a-tetrahydro-6H-isoquinolino[3,2-a]isoquinolin-9-yl 3-fluorobenzenesulfonate and Salts Thereof” (CVI Pharmaceuticals Limited, priority 2020, published 2023).
# Where a name gives a salt, the structure may show the parent alone.
# Tests used:
# [1] = TGA (Thermal Gravimetric Analysis) weight loss; format: physicochemical
# Description: TGA (Thermal Gravimetric Analysis): Samples of compounds (4˜6 mg) were weighed into the pan, and heated under nitrogen purge using a ramp rate of 20° C./min over the range of 30° C.˜350° C.
# [2] = Solubility of salts in water, SGF and FaSSIF at 25° C. for 24 hours (HPLC)
# Description: (§3) About 5 mg of seven kinds of salts were weighed into each vial, and 2 mL of medium was added, respectively. The medium included water, SGF and FaSSIF. All samples were stirred at 25° C. for 24 hours.
# serum PCSK9 = experiment: Double-blind, randomized phase 1a study in healthy volunteers; format: in vivo, human; conditions: 10 days oral 300 mg QD, compared to baseline
# From the text: (§1) Compound 1a has undergone a double-blind, randomized phase 1a study conducted in healthy volunteers. […] Currently, a phase 2 POC trial is underway in China in patients with hypercholesterolemia.
# [3] = test system: serum LDL-C, TC, Apo B, and PCSK9; experiment: Proof-of-mechanism phase 1b study in subjects with elevated LDL-C; format: in vivo, human; conditions: 28 days, compared with placebo cohort
# From the text: as §1
# [4] = Phase 1 studies, safety and tolerability in healthy volunteers and hyperlipidemic subjects; format: in vivo, human
# From the text: as §1
# [5] = Solid stability at 40° C./0% RH (closed) and 40° C./75% RH (open), HPLC; format: physicochemical; conditions: for 0 day % remaining / 5 day % remaining / 10 day % remaining: solid
# Description: (§2) Solid stability: 5 mg of 2a was weighed into scintillation vials sealed properly and stored at 40° C./0% RH(closed), 40° C./75% RH(open) under dark conditions to avoid the effect of light on stability. Samples were collected at day 0, 5 and 10 and analyzed by HPLC.
# Solid stability: 5 mg of compound was weighed into vials sealed properly and stored at 40° C./0% RH (closed), 40° C./75% RH (open) under dark conditions to avoid the effect of light. Samples were analyzed by HPLC at days 0, 7, and 21.
# as §2, with “stability of compound 1a:” for “stability:”, “compound were accurately” for “of 2a was”, “condition” for “conditions”, “should be” for “were”, “10 days” for “10”
# [6] = Long term stability at 30° C./65% RH; format: physicochemical
# physchem = conditions: 25 °C, thermodynamic from solid, Solubility (mg/mL)
# Description: as §3
# [7] = Medium: FaSSIF, 25° C., stirred 24 hours, HPLC
# [8] = Medium: SGF, 25° C., stirred 24 hours, HPLC
# [9] = Medium: Water, 25° C., stirred 24 hours, HPLC
compound,measurement,setting,value
COc1ccc2c(c1)CCN1Cc3c(ccc(OC)c3OS(=O)(=O)c3cccc(F)c3)C[C@H]21 [hydrobromide salt],TGA weight loss (from RT to 120° C.),[1],1.50%
same,TGA weight loss,[1]; room temperature to 120° C.,1.50%
same,solubility,[2]; [7],0.002 mg/mL
same,solubility,[2]; [8],0.156 mg/mL
same,solubility,[2]; [9],0.163 mg/mL
COc1ccc2c(c1)CCN1Cc3c(ccc(OC)c3OS(=O)(=O)c3cccc(F)c3)C[C@H]21 [maleate],TGA weight loss (from RT to 120° C.),[1],0.44%
same,TGA weight loss (in words),[1]; room temperature to 120° C.,almost no obvious weight loss
same,solubility,[2]; [7],0.001 mg/mL
same,solubility,[2]; [8],0.221 mg/mL
same,solubility,[2]; [9],0.086 mg/mL
hydrochloride,TGA weight loss (from RT to 120° C.),[1],0.09%
COc1ccc2c(c1)CCN1Cc3c(ccc(OC)c3OS(=O)(=O)c3cccc(F)c3)C[C@H]21 [sulfate],TGA weight loss (from RT to 120° C.),[1],0.12%
same,TGA weight loss (in words),[1]; room temperature to 120° C.,no weight loss
same,solubility at 24 h,"[2]; FaSSIF, 25 °C, fassif, thermodynamic from solid, Solubility (mg/mL), Medium: FaSSIF, 25° C., stirred 24 hours, HPLC",0.002 mg/mL
same,solubility,[2]; [8],0.496 mg/mL
same,solubility,[2]; [9],1.370 mg/mL
same,Solubility compared with other polymorphs (summary),[2]; summary of the Examples,generally more soluble than other polymorphs
same,Solubility compared with other salts,"[2]; water and SGF, 25° C., 24 hours",better than that of other salts
"COc1ccc2c(c1)CCN1Cc3c(ccc(OC)c3OS(=O)(=O)c3cccc(F)c3)C[C@H]21 [Compound 1a, 3,10-dimethoxy-5,8,13,13a-tetrahydro-6H-isoquinolino[3,2-a]isoquinolin-9-yl 3-fluorobenzenesulfonate]",serum PCSK9 levels,serum PCSK9,significantly reduced
same,serum Apo B,[3],significantly reduced
same,serum LDL-C,[3],significantly reduced
same,serum PCSK9 levels,[3],significantly reduced
same,serum TC,[3],significantly reduced
same,safety profile,[4],favorable safety profile
same,tolerability,[4],well tolerated
same,Solid-state stability (HPLC),"[5]; 40° C./0% RH (closed) and 40° C./75% RH (open), dark, up to 10 days",substantially stable
same,0 day % remaining,"[5]; 40° C. (0% RH, closed)",99.65%
same,5 day % remaining,"[5]; 40° C. (0% RH, closed)",101.65%
same,10 day % remaining,"[5]; 40° C. (0% RH, closed)",100.85%
same,0 day % remaining,[5]; 40° C./75% RH (open),99.65%
same,5 day % remaining,[5]; 40° C./75% RH (open),100.66%
same,10 day % remaining,[5]; 40° C./75% RH (open),101.31%
same,% Remaining,[6]; 1 month,100.30%
same,% Remaining,[6]; 3 month,100.00%
same,% Remaining,[6]; 6 month,99.30%
same,% Remaining,[6]; 12 month,99.60%
same,% Remaining,[6]; 18 month,99.20%
same,% Remaining,[6]; 24 month,99.50%
same,% Remaining,[6]; 36 month,100.40%
same,% Remaining,[6]; time 0,100.10%
same,Long term stability,[6]; up to 36 months,stable
COc1ccc2c(c1)CCN1Cc3c(ccc(OC)c3OS(=O)(=O)c3cccc(F)c3)C[C@H]21 [besylate],TGA weight loss (from RT to 120° C.),[1],0.24%
same,TGA weight loss (in words),[1]; room temperature to 120° C.,no significant weight loss
same,solubility,[2]; [7],0.001 mg/mL
same,solubility,[2]; [8],0.214 mg/mL
same,solubility,[2]; [9],0.110 mg/mL
COc1ccc2c(c1)CCN1Cc3c(ccc(OC)c3OS(=O)(=O)c3cccc(F)c3)C[C@H]21 [tosylate],solubility at 24 h,physchem; fassif,< 0.001 mg/mL
same,solubility at 24 h,physchem; simulated gastric fluid,0.399 mg/mL
same,solubility at 24 h,physchem; water,0.411 mg/mL
same,TGA weight loss (from RT to 120° C.),[1],0.60%
same,TGA weight loss (in words),[1]; room temperature to 120° C.,almost no significant weight loss
